Results: PubChem BioAssay AID248 (DTP/NCI, 2004)
Several values for one entry are separate records, joined by “and”; a condition that tells them apart may be missing. Equal values may be shown once. Inconclusive results and toxic doses are left out. Cut-off read from the data, not from the text of the source: active = T/C of 150% or more; inactive = T/C below 125%.

Tested on: L1210 leukemia ip in BDF1 mice, survival T/C
Assay: NCI In Vivo Anticancer Drug Screen. Data for tumor model L1210 Leukemia (intraperitoneal) in B6D2F1 (BDF1) mice
Settings: endpoint: mean survival time, higher = longer survival
Procedure, shortened: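 Read-out is survival time, reported as the treated-group measurement over the vehicle-control measurement.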

[1] = dose: 50.0 mg/kg/injection, schedule: Q01DX001 (ip), vehicle: saline
[2] = dose: 100.0 mg/kg/injection, schedule: Q01DX001 (ip), vehicle: saline
[3] = dose: 200.0 mg/kg/injection, schedule: Q01DX001 (ip), vehicle: saline
[4] = dose: 400.0 mg/kg/injection, schedule: Q01DX001 (ip), vehicle: saline
[5] = dose: 25.0 mg/kg/injection, schedule: Q01DX009 (ip), vehicle: Klucel (hydroxypropylcellulose) (HPC)
[6] = dose: 50.0 mg/kg/injection, schedule: Q01DX009 (ip), vehicle: Klucel (hydroxypropylcellulose) (HPC)
[7] = dose: 100.0 mg/kg/injection, schedule: Q04DX003 (ip), vehicle: saline
[8] = dose: 200.0 mg/kg/injection, schedule: Q04DX003 (ip), vehicle: saline
[9] = dose: 100.0 mg/kg/injection, schedule: Q04DX003 (ip), vehicle: saline with Tween-80
[10] = dose: 200.0 mg/kg/injection, schedule: Q04DX003 (ip), vehicle: saline with Tween-80
[11] = dose: 400.0 mg/kg/injection, schedule: Q04DX003 (ip), vehicle: saline with Tween-80

Measured: T/C

C#CC(C)OCC(O)CCl (centres undefined)
inactive: dose: 25.0 mg/kg/injection, schedule: Q01DX009 (ip), vehicle: saline 97 % of control | dose: 50.0 mg/kg/injection, schedule: Q01DX009 (ip), vehicle: saline 105 % of control | dose: 100.0 mg/kg/injection, schedule: Q01DX009 (ip), vehicle: saline 103 % of control and 89 % of control | dose: 100.0 mg/kg/injection, schedule: Q04DX003 (ip), vehicle: saline sonified 97 % of control | dose: 200.0 mg/kg/injection, schedule: Q04DX003 (ip), vehicle: saline sonified 87 % of control | dose: 400.0 mg/kg/injection, schedule: Q04DX003 (ip), vehicle: saline sonified 103 % of control

[O-]/[N+](=C\c1ccc(OCc2ccccc2)cc1)c1ccccc1
inactive: [1] 102 % of control | [2] 102 % of control | [3] 108 % of control | [4] 90 % of control

NC1=NC(c2ccccc2)N(c2ccccc2)C(N)=N1 (centres undefined)
inactive: [1] 99 % of control | [2] 104 % of control

C=CCNC(=S)NCc1ccc(Cl)cc1
inactive: [5] 100 % of control | [6] 102 % of control | dose: 100.0 mg/kg/injection, schedule: Q01DX009 (ip), vehicle: Klucel (hydroxypropylcellulose) (HPC) 94 % of control | dose: 100.0 mg/kg/injection, schedule: Q04DX002 (ip), vehicle: Klucel (hydroxypropylcellulose) (HPC) 111 % of control

CC1(N)COP(=O)(NC2CCCC2)OC1 (centres undefined)
inactive: [2] 100 % of control | [3] 105 % of control | [4] 91 % of control

Cc1cc(C)c(C(=O)OC(C)CNC2CCCCC2)c(C)c1 (centres undefined)
inactive: dose: 75.0 mg/kg/injection, schedule: Q01DX001 (ip), vehicle: carboxymethylcellulose (CMC) 96 % of control | dose: 150.0 mg/kg/injection, schedule: Q01DX001 (ip), vehicle: carboxymethylcellulose (CMC) 102 % of control

C/C(=N/N=C(N)N)C(C)C
inactive: dose: 15.0 mg/kg/injection, schedule: Q01DX Z (ip), vehicle: carboxymethylcellulose (CMC) 102 % of control | dose: 27.0 mg/kg/injection, schedule: Q01DX Z (oral), vehicle: carboxymethylcellulose (CMC) 95 % of control | dose: 30.0 mg/kg/injection, schedule: Q01DX Z (ip), vehicle: carboxymethylcellulose (CMC) 100 % of control | dose: 40.0 mg/kg/injection, schedule: Q01DX Z (oral), vehicle: carboxymethylcellulose (CMC) 98 % of control | dose: 60.0 mg/kg/injection, schedule: Q01DX Z (ip), vehicle: carboxymethylcellulose (CMC) 92 % of control | dose: 60.0 mg/kg/injection, schedule: Q01DX Z (oral), vehicle: carboxymethylcellulose (CMC) 106 % of control | dose: 90.0 mg/kg/injection, schedule: Q01DX Z (oral), vehicle: carboxymethylcellulose (CMC) 98 % of control | dose: 120.0 mg/kg/injection, schedule: Q01DX Z (oral), vehicle: carboxymethylcellulose (CMC) 101 % of control | dose: 135.0 mg/kg/injection, schedule: Q01DX Z (oral), vehicle: carboxymethylcellulose (CMC) 97 % of control

CCSC1C(O)C(C(O)CO)OC1n1cnc2c(N)ncnc21 (centres undefined)
inactive: dose: 100.0 mg/kg/injection, schedule: Q01DX005 (ip), vehicle: saline 98 % of control and 105 % of control and 102 % of control | dose: 200.0 mg/kg/injection, schedule: Q01DX005 (ip), vehicle: saline 98 % of control and 100 % of control and 96 % of control | dose: 400.0 mg/kg/injection, schedule: Q01DX005 (ip), vehicle: saline 104 % of control

O=S(=O)(CCl)Nc1ccncc1
inactive: dose: 100.0 mg/kg/injection, schedule: Q04DX013 (ip), vehicle: carboxymethylcellulose (CMC) 101 % of control | dose: 200.0 mg/kg/injection, schedule: Q04DX013 (ip), vehicle: carboxymethylcellulose (CMC) 100 % of control | dose: 400.0 mg/kg/injection, schedule: Q04DX013 (ip), vehicle: carboxymethylcellulose (CMC) 100 % of control

COc1cccc(C(=O)CC(O)(C(F)(F)F)C(F)(F)F)c1
inactive: dose: 50.0 mg/kg/injection, schedule: Q04DX003 (ip), vehicle: other 100 % of control | dose: 100.0 mg/kg/injection, schedule: Q04DX003 (ip), vehicle: other 96 % of control | dose: 200.0 mg/kg/injection, schedule: Q04DX003 (ip), vehicle: other 98 % of control | dose: 400.0 mg/kg/injection, schedule: Q04DX003 (ip), vehicle: other 104 % of control

CCN(CC)CCSC(=O)C(O)(c1ccc(C)cc1)c1ccc(C)cc1
inactive: dose: 75.0 mg/kg/injection, schedule: Q01DX001 (ip), vehicle: other 90 % of control | dose: 150.0 mg/kg/injection, schedule: Q01DX001 (ip), vehicle: other 96 % of control

O=[N+]([O-])C1C=CCS1(=O)=O (centres undefined)
inactive: [7] 95 % of control | [8] 96 % of control | dose: 400.0 mg/kg/injection, schedule: Q04DX003 (ip), vehicle: saline 86 % of control

Cc1cccc(N2CCNCC2)c1
inactive: dose: 6.25 mg/kg/injection, schedule: Q04DX003 (ip), vehicle: saline 93 % of control | dose: 12.5 mg/kg/injection, schedule: Q04DX003 (ip), vehicle: saline 96 % of control | dose: 25.0 mg/kg/injection, schedule: Q04DX002 (ip), vehicle: saline with Tween-80 101 % of control | dose: 25.0 mg/kg/injection, schedule: Q04DX003 (ip), vehicle: saline 102 % of control | dose: 50.0 mg/kg/injection, schedule: Q04DX002 (ip), vehicle: saline with Tween-80 92 % of control

CC(C)SP(=S)(C(C)C)C(C)C
inactive: dose: 100.0 mg/kg/injection, schedule: Q01DX001 (ip), vehicle: saline with Tween-80 115 % of control | dose: 200.0 mg/kg/injection, schedule: Q01DX001 (ip), vehicle: saline with Tween-80 102 % of control | dose: 400.0 mg/kg/injection, schedule: Q01DX001 (ip), vehicle: saline with Tween-80 94 % of control

COc1ccc2c(c1)CCC1C2=CC(=O)/C1=C\[O-].COc1ccc2c(c1)CCC1C2=CC(=O)/C1=C\[O-].[Cu+2] (centres undefined)
inactive: dose: 50.0 mg/kg/injection, schedule: Q01DX009 (ip), vehicle: saline with Tween-80 97 % of control | dose: 100.0 mg/kg/injection, schedule: Q01DX009 (ip), vehicle: saline with Tween-80 104 % of control | [7] 92 % of control | [8] 94 % of control

Nc1nc(N)c(CCCOc2ccc(C(=O)O)cc2)c(N)n1
inactive: dose: 12.5 mg/kg/injection, schedule: Q01DX009 (ip), vehicle: Klucel (hydroxypropylcellulose) (HPC) 95 % of control | [5] 100 % of control | [6] 93 % of control

O=C1CCC(N2C(=O)C3C4CCC(CC4)C3C2=O)C(=O)N1 (centres undefined)
inactive: [9] 104 % of control | [10] 96 % of control | [11] 100 % of control

NC(=O)NC(N)=S
inactive: [9] 99 % of control | [10] 103 % of control | [11] 103 % of control

CC(=O)OCC(=O)[C@@]1(O)CC[C@H]2[C@@H]3CCC4=CC(=O)CC[C@]4(C)C3=CC[C@@]21C
inactive: dose: 12.5 mg/kg/injection, schedule: Q04DX003 (ip), vehicle: saline with Tween-80 95 % of control | dose: 25.0 mg/kg/injection, schedule: Q04DX003 (ip), vehicle: saline with Tween-80 93 % of control | dose: 50.0 mg/kg/injection, schedule: Q04DX003 (ip), vehicle: saline with Tween-80 90 % of control
